For this assay, the system named is patients with Huntington's disease. To be noted: Week 26; for Δ to placebo, change from baseline in UHDRS TMS Chorea: ALL; for Wk 26 Δ to placebo, change from baseline in UHDRS TMS Chorea: Stage 1 BL TFC 11-13. The text has this:
In the UHDRS, maximal chorea was scored from 0 (absent) to 4 (marked/prolonged) on each of the following items: face, mouth, trunk, right upper extremity, left upper extremity, right lower extremity, and left lower extremity. Maximal chorea is the sum of all scores.

The record followed here is patent US12564582B2 (Prilenia Neurotherapeutics Ltd., priority 2016, dated 2026).

Where two headings read alike, the source gives them in different places.

`CCCN1CCC(c2cccc(S(C)(=O)=O)c2)CC1` [pridopidine, 4-[3-(methylsulfonyl)phenyl]-1-propyl-piperidine]: the “Δ to placebo, change from baseline in UHDRS TMS Chorea” value stood at 0.92 (45 mg bid), 0.81 (67.5 mg bid), 0.36 (90 mg bid) and 1.05 (112.5 mg bid). For the same compound, the “Wk 26 Δ to placebo, change from baseline in UHDRS TMS Chorea” value by setting is: (45 mg bid) −1.4; (67.5 mg bid) −2.07; (90 mg bid) −2.52; (112.5 mg bid) −1.08.
